In PubChem BioAssay AID179 (DTP/NCI, 2004) one finds EC50, IC50 and outcome data, which are given here for 71 molecules.

For orientation: pEC50 means the EC50 on a negative log10 scale, so that one unit is a factor of ten. What is called pIC50 is the IC50 on a negative log10 scale, so that one unit is a factor of ten. Higher therefore signals a low IC50.

pEC50, pIC50: −log10 of the molar value. “And” between values parts separate entries of the source, which are not always exact repeats. Equal values may be shown once. The source made the active and inactive calls.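 Rule for the calls: active = compounds giving half or more protection of infected cells from virus-caused growth loss, again on retest; inactive = the rest.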 A value given as a limit tells only on which side of the number the result lay.

The subject of the assay is CEM cells HIV-1 protection, formazan growth assay. Nature of the assay: NCI AIDS Antiviral Assay. To be noted: for pIC50: measured here: growth of uninfected CEM cells. An outline of the steps: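 Steps: treat uninfected and HIV-1-infected human CEM cells at five drug levels; quantify growth by soluble formazan; retest any compound reaching 50% protection; classify actives from the retest.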

As for `CC1(C)CC(=O)C(CC2C(=O)c3ccccc3C2=O)C(=O)C1`, the pEC50 is below 3.92 and the pIC50 is below 3.92.

As to `Clc1ccccc1C(=Nc1ccccc1)C(=Nc1ccccc1)c1ccccc1Cl`, the pEC50 is below 5.76 and the pIC50 is below 5.76.

For the molecule `CCOc1ccc(/C=C/C(=O)c2ccccc2)cc1`, the pEC50 was below 3.70 and the pIC50 was 4.46. Regarding `Cc1ccc(NC(=O)/C(=N\Nc2ccc([N+](=O)[O-])cc2[N+](=O)[O-])C2C(=O)NC(=O)NC2=O)cc1`, the result was inactive. As for `Cc1cc2occ(C)c(=O)c2c2c1OC(C)(C)S2`, the pEC50 was below 4.00 and the negative-log IC50 (pIC50) was 4.29. In the same order, the values of `NC(=O)C(=CNC(=S)Nc1ccccc1)C(N)=O` are below 3.70 and below 3.70. For `O=[N+]1ON=C(c2ccccc2)C1=C1C(c2c(-c3ccccc3)no[n+]2[O-])=NON1[O-]`, in that order: below 3.70 and 5.22. Regarding `CCc1cccc(CC)c1NC(=O)C1=C(C)NC(C)=C(C(=O)Nc2c(CC)cccc2CC)C1c1ccc([N+](=O)[O-])cc1`, the pEC50 is below 4.35 and the pIC50 is below 4.35. As to `CC(C)OP(=O)(OC(C)C)/C(I)=N/Nc1ccc([N+](=O)[O-])cc1`, the pEC50 was below 3.96 and the pIC50 is below 3.96. Take `CCCC(=O)[O-].N.N.N.N.N.[Co+3].[O-][Cl+3]([O-])([O-])[O-]`: the result was inactive. For the molecule `C1CCC(CC[N+]23CC[N+](CCC4CCCC4)(CC2)C3)C1`, the pEC50 was below 3.16 and the pIC50 is 3.46. As to `COc1ccc(C2CC(c3ccccc3)=Nc3ccccc3S2)cc1OC` (stereo not given), the pEC50 is below 4.40 and the pIC50 was 5.07. Turning to `C/C(N=NS(=O)(=O)c1ccc([N+](=O)[O-])cc1)=C1\C=CC=CN1O`, the result was inactive. For `CC(=O)Nc1cccc(C(CC(=O)O)CC(=O)O)c1`, the pEC50 is below 3.70 and the negative-log IC50 (pIC50) was below 3.70. In the case of `CCCc1cc(=O)oc2c3c(cc(OC(C)C)c12)O[C@H](C)[C@@H](C)/C3=N/O`, the pEC50 is below 3.70 and the pIC50 was 5.42. In the case of `COC(=O)CCC(C)C1CCC2[C@@H]3CC[C@@H]4CC(O)CC[C@]4(C)C3CC[C@]12C` (stereo not given in full), the pEC50 was below 4.59 and the pIC50 was below 4.59. With `COC(=O)CCCc1ccc2c(c1)CCC2`, the pEC50 is below 3.70 and the pIC50 was below 3.70. `Cn1cnc([N+](=O)[O-])c1S`: the pEC50 was below 3.70 and the pIC50 was 4.17. For the molecule `COc1ccccc1NC(=O)C1=C(C)NC(C)=C(C(=O)Nc2ccccc2OC)C1c1ccco1`, the result was inactive.

Consider `Clc1ccc(Nc2nc3ccccc3nc2-c2cccs2)cc1Cl`, for which the pEC50 is below 4.85 and the negative logarithm of the IC50 (pIC50) was below 4.85.

On to `c1ccc(CSc2ccc3nncc(SCc4ccccc4)c3c2)cc1`, for which the pEC50 is below 4.24 and the negative logarithm of the IC50 (pIC50) is below 4.24.

On to `COc1ccc(/C=C2\N=C(c3ccccc3)N(Nc3nnc(NN4C(=O)/C(=C/c5ccc(OC)cc5)N=C4c4ccccc4)c4ccccc34)C2=O)cc1`, for which the result was inactive. Take `Cc1cn(C2CC(N=[N+]=[N-])C(COC(=O)[C@@]3(O)CC[C@H]4[C@@H]5CCC6=CC(=O)CC[C@]6(C)[C@H]5C(O)C[C@@]43C)O2)c(=O)[nH]c1=O` (stereo not given in full): the negative-log EC50 (pEC50) is 4.57 and the pIC50 is 3.80. Consider `CN1CCN(c2ccc3c(c2)NCC(=O)N3)CC1`, for which the pEC50 is below 3.70 and the negative-log IC50 (pIC50) was 3.93. With `CC1(C)SCc2nc3ccccc3n21`, the pEC50 was below 3.70 and the negative logarithm of the IC50 (pIC50) was 3.73. In the case of `C/C=C/C=C1\C=Cc2c(C(=O)OC)coc(=O)c21`, the pEC50 is below 3.70 and the negative logarithm of the IC50 (pIC50) was 4.45. For the molecule `C1=CC2C=CC(C=C1)P2c1ccccc1` (stereo not given), the outcome was inactive. For `O=C(O)c1ccccc1CC1Cc2ccc3c(c2C1=O)CCC3` (stereo not given), the pEC50 is below 3.70 and the negative-log IC50 (pIC50) is 3.95. Turning to `COc1cc2cc(C(=O)N3CC(CCl)c4ccc([N+](C)(C)Cc5ccc([N+](=O)[O-])cc5)cc43)[nH]c2c(OC)c1OC` (stereo not given), the pEC50 was below 3.70 and the pIC50 was 5.11.

As for `Cc1ccc(S(=O)(=O)N/N=C(/c2ccccc2)c2ccsc2C)cc1`, the pEC50 is below 3.70 and the negative-log IC50 (pIC50) was 4.53. On to `CN1CN(c2ccccc2)C2(CCN(CCCSc3ccccc3NC(=O)/C=C/c3ccccc3)CC2)C1=O`, for which the pEC50 was below 3.70 and the negative logarithm of the IC50 (pIC50) was 5.48. For `CN(C)CCNC(=O)C1COc2cc(-c3cc(=O)c4ccccc4o3)ccc2O1` (stereo not given), the result was inactive. As to `COc1ccc(N=Nc2ccc3oc(=O)c(C(=O)Nc4ccccc4C)cc3c2)cc1`, the pEC50 is below 3.70 and the pIC50 was 4.18. With `COc1ccc(NC(C)c2ccncc2)cc1` (stereo not given), the pEC50 was below 3.70 and the pIC50 is below 3.70. Regarding `O=C(c1ccco1)C1CC(c2ccc3ccccc3c2O)=NN1c1ccc([N+](=O)[O-])cc1[N+](=O)[O-]` (stereo not given), the pEC50 was below 3.70 and the pIC50 was 4.80. As to `COc1cc(C2C(C#N)=C(N)OC3=C2CCS(=O)(=O)c2ccc(C)cc23)cc(OC)c1OC` (stereo not given), the pEC50 is below 3.70 and the negative-log IC50 (pIC50) is below 3.70. Turning to `O=C(O)c1c2ccccc2nc2[nH]c(=O)[nH]c(=O)c12`, the result was inactive and the negative logarithm of the IC50 (pIC50) was 3.85.

Turning to `C1=CC2C(c3cn(-c4ccccc4)nc31)C1C2C2C=CC3C(C=C2)C31` (stereo not given), the pEC50 was below 5.49 and the pIC50 is below 5.49. As to `CCOc1ccc(Nc2nc(N)nc(N)c2N)cc1`, the pEC50 was below 3.70 and the pIC50 is 4.18.

On to `Cc1cn(C2C[C@@H]3C(COC(c4ccc([N+](=O)[O-])cc4)N3O)O2)c(=O)[nH]c1=O` (stereo not given in full), for which the pEC50 is below 3.70 and the pIC50 is below 3.70.

For `COc1cccc2c(NCCC[N+](C)(C)[O-])c3c([N+](=O)[O-])ccc(OC)c3nc12`, the pEC50 was below 3.70 and the pIC50 is 5.88. Take `CSc1nc(C)c2c(n1)N(c1ccc(Cl)cc1)CC2`: the pEC50 is below 3.70 and the pIC50 was below 3.70. As to `CC(=O)OC1=NN=C2COC(c3ccccc3OC(C)=O)=NN2C1`, the pEC50 was below 3.70 and the pIC50 was 3.94. As for `OCC(O)C(O)C(O)C1SC(c2ccccc2)=NN1c1ccccc1` (stereo not given), the result was inactive.

Consider `CC(C)OP(=O)(NC(=S)c1ccccc1)OC(C)C`, for which the pEC50 is below 3.50 and the pIC50 is 3.53. In the case of `Nc1nc(SCC(=O)c2ccccc2)nc2nc3c(c(-c4ccccc4)c12)CCCC3`, the pEC50 was below 4.00 and the negative logarithm of the IC50 (pIC50) is 4.18. On to `CCCSP(SCCC)SCCC`, for which the result was inactive. Consider `COC(=O)C1=C(C)N2[C@H](C(=O)O)CS[C@@]2(C)[C@H](C(=O)OC)[C@H]1c1cccc([N+](=O)[O-])c1`, for which the pEC50 is below 3.70 and the pIC50 was 3.83. As for `Cc1cc(C)c2c(c1)C/C(=C\c1ccccc1C(=O)O)C2=O`, the outcome was inactive.

On to `COC(=O)c1c(CC(Cc2ccc3c(c2)CCCC3)C(=O)O)ccc2c1CCCC2` (stereo not given), for which the pEC50 is below 3.70 and the pIC50 is 4.23. `O=C(/C=C/c1ccccc1)CC(=O)c1ccccc1.O=C(/C=C/c1ccccc1)CC(=O)c1ccccc1.[Cu]`: the pEC50 was below 3.70 and the pIC50 is 4.02. Regarding `O=C(Nc1ccn(C2CC(I)C(COC(c3ccccc3)(c3ccccc3)c3ccccc3)O2)c(=O)n1)c1ccccc1` (stereo not given), the pEC50 was below 3.70 and the negative logarithm of the IC50 (pIC50) was 5.12. In the same order, the values of `CCOC(=O)NC(=S)NC(C)c1ccccc1` (stereo not given) are below 3.70 and 3.94. For `O=C(O)c1ccc(/C=C/c2ccc(N=Nc3c(O)cc(O)cc3C(=O)O)cc2C(=O)O)cc1`, in that order: below 3.70 and 3.92. As for `COC(=O)c1cc(C(=CCCCCBr)c2cc(Cl)c(OC)c(C(=O)OC)c2)cc(Cl)c1OC`, the negative-log EC50 (pEC50) was 4.34 and the negative logarithm of the IC50 (pIC50) was 3.82. Turning to `Nc1ncnc2c1ncn2C1CCCCC(O)C1` (stereo not given), the result was inactive.

In the case of `Cc1ccc(S(=O)(=O)N/N=C/c2oc(-c3ccncc3)c(-c3ccncc3)c2[N+](=O)[O-])cc1`, the pEC50 was below 4.81 and the negative logarithm of the IC50 (pIC50) is below 4.81. With `c1cncc(C2c3[nH]c4ccccc4c3CCN2CCCN2CCCCC2)c1` (stereo not given), the pEC50 is below 5.41 and the pIC50 was below 5.41. In the case of `COC(=O)C1=C(C(=O)OC)SC2(S1)C(C(=O)OC)=C(C(=O)OC)Sc1c2ssc1=O`, the pEC50 is below 6.70 and the pIC50 was 7.24. On to `CC(C)(CO)N=Cc1ccccc1[O-].CC(C)(CO)N=Cc1ccccc1[O-].[Co+2]`, for which the pEC50 is below 3.82 and the negative-log IC50 (pIC50) is below 3.82. For the molecule `N#Cc1nc(Cc2ccccc2)oc1N`, the result was inactive. Turning to `CC/C=C/C(O[Si](C)(C)C(C)(C)C)C1CC2OC(=O)CCCC2O1` (stereo not given), the pEC50 is below 3.15 and the pIC50 was below 3.15. On to `COC(=O)c1ccc2cc(O)ccc2c1`, for which the pEC50 was below 3.70 and the pIC50 was 4.08. For the molecule `CC(C)(O)C1CCC2(C)CC(=O)NCCN12` (stereo not given), the pEC50 was below 3.40 and the negative-log IC50 (pIC50) is below 3.40. Consider `COc1ccc(C2Oc3c(cccc3-c3c(-c4ccc(O)cc4)oc4cc(O)cc(O)c4c3=O)C(=O)C2O)cc1O` (stereo not given), for which the pEC50 was below 3.70 and the negative-log IC50 (pIC50) is 3.77.

Take `O=C(Nc1ccc2c(O)c(N=Nc3ccccc3)c(S(=O)(=O)O)cc2c1)Nc1ccc2c(O)c(N=Nc3ccccc3)c(S(=O)(=O)O)cc2c1`: the negative logarithm of the EC50 (pEC50) is 4.39; the pIC50 is 4.30 and 3.72. Regarding `O=C1/C(=C/c2ccc(Cl)cc2)Cc2ccccc21`, the pEC50 is below 5.25 and the negative logarithm of the IC50 (pIC50) was below 5.25.

Take `Cc1nc2n(c1C(N)=O)CCS2`: the pEC50 was below 3.70 and the pIC50 is below 3.70.

`CCc1cccc(C)c1NC(=O)CC(=O)NNC(N)=S`: the pEC50 is below 3.49 and the negative-log IC50 (pIC50) was below 3.49. As to `c1cc2n(n1)CCN2`, the pEC50 is below 2.64 and the pIC50 is 3.77.

Take `Cc1cc(C)nc(NC(=S)Nc2cccc(Cl)c2)c1`: the pEC50 is below 3.70 and the pIC50 is 4.56.
